molecular target: T1, Syk (Homo sapiens, UniProt P43405); assay: Syk HTRF assay; assay type: biochemical; conditions: IC50 activity level, read-out: Activity Level
T1 construct: purchased Carna Biosciences
Outline: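 HTRF kinase assay in HEPES pH 7.6 buffer with MgCl2, DTT and Triton X100; start mix of 87.5 μM ATP and 80 nM biotinylated peptide, 1 h at room temperature. EDTA stop, then Eu-anti-phosphotyrosine/streptavidin-DyLight 647 detection, read as 665/615 nm emission ratio.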

SMILES	IC50
COCc1n[nH]c2cc(Nc3nc4cccc(CC5CCOCC5)n4n3)ccc12 [Example 552, N-(3-(methoxymethyl)-1H-indazol-6-yl)-5-((tetrahydro-2H-pyran-4-yl)methyl)-[1,2,4]triazolo[1,5-a]pyridin-2-amine]	0.005 to 250 nM
OC1CCC(Nc2cccc3nc(Nc4ccccc4)nn23)CC1 (stereo in doubt) [Example 470, trans-4-(2-(phenylamino)-[1,2,4]triazolo[1,5-a]pyridin-5-ylamino)cyclohexanol]	1000 to 10000 nM
CNCc1nc2cc(-c3cccc4nc(Nc5ccccc5)nn34)ccc2[nH]1 [Example 487, 5-(2-((methylamino)methyl)-1H-benzo[d]imidazol-5-yl)-N-phenyl-[1,2,4]triazolo[1,5-a]pyridin-2-amine]	0.005 to 250 nM
O=C1NCc2ccc(-c3cccc4nc(Nc5ccccc5)nn34)cc21 [Example 500, 6-(2-(phenylamino)-[1,2,4]triazolo[1,5-a]pyridin-5-yl)-isoindolin-1-one]	500 to 1000 nM
FC(F)(F)c1n[nH]c2cc(Nc3nc4cccc(CC5CCOCC5)n4n3)ccc12 [Example 540, 5-((tetrahydro-2H-pyran-4-yl)methyl)-N-(3-(trifluoromethyl)-1H-indazol-6-yl)-[1,2,4]triazolo[1,5-a]pyridin-2-amine]	0.005 to 250 nM
C[C@H](Cc1cccc2nc(Nc3ccccc3)nn12)C(N)=O [Example 460, (R)-2-methyl-3-(2-(phenylamino)-[1,2,4]triazolo[1,5-a]pyridin-5-yl)propanamide]	1000 to 10000 nM
O[C@H]1CC[C@@H](Nc2cccc3nc(Nc4ccc(C(F)(F)F)cc4)nn23)C1 (stereo in doubt) [Example 418, (1S,3R)-3-(2-(4-(trifluoromethyl)phenylamino)-[1,2,4]triazolo[1,5-a]pyridin-5-ylamino)cyclopentanol]	0.005 to 250 nM
c1cncc(Nc2nc3cccc(N[C@@H]4CCCNC4)n3n2)c1 [Example 434, (R)-N^5-(piperidin-3-yl)-N^2-(pyridin-3-yl)-[1,2,4]triazolo[1,5-a]pyridine-2,5-diamine]	1000 to 10000 nM
Oc1cc(Nc2cccc3nc(Nc4ccc(C(F)(F)F)cc4)nn23)ccn1 [Example 415, 4-(2-(4-(trifluoromethyl)phenylamino)-[1,2,4]triazolo[1,5-a]pyridin-5-ylamino)pyridin-2-ol]	1000 to 10000 nM
Cc1nnc2cc(Nc3nc4cccc(NC5CCOCC5)n4n3)ccn12 [Example 534, N^2-(3-methyl-[1,2,4]triazolo[4,3-a]pyridin-7-yl)-N^5-(tetrahydro-2H-pyran-4-yl)-[1,2,4]triazolo[1,5-a]pyridine-2,5-diamine]	1000 to 10000 nM
CNc1nc2cc(-c3cccc4nc(Nc5ccccc5)nn34)ccc2[nH]1 [Example 481, 5-(2-(methylamino)-1H-benzo[d]imidazol-5-yl)-N-phenyl-[1,2,4]triazolo[1,5-a]pyridin-2-amine]	0.005 to 250 nM

Continued, values first:

IC50	SMILES
250 to 500 nM	c1cc(N[C@@H]2CCCNC2)n2nc(Nc3ccc4nn[nH]c4c3)nc2c1 [Example 455, (R)-N^2-(1H-benzo[d][1,2,3]triazol-6-yl)-N^5-(piperidin-3-yl)-[1,2,4]triazolo[1,5-a]pyridine-2,5-diamine]
0.005 to 250 nM	CC1(C)C(=O)Nc2cc(Nc3nc4cccc(CC5CCOC5)n4n3)ccc21 (single isomer, unassigned; enantiomer 2) [Example 558, 3,3-dimethyl-6-(5-((tetrahydrofuran-3-yl)methyl)-[1,2,4]triazolo[1,5-a]pyridin-2-ylamino)indolin-2-one (enantiomer 2)]
500 to 1000 nM	Cc1cc(-c2cccc3nc(Nc4ccccc4)nn23)no1 [Example 473, 5-(5-methylisoxazol-3-yl)-N-phenyl-[1,2,4]triazolo[1,5-a]pyridin-2-amine]
0.005 to 250 nM	c1ccc(Nc2nc3cccc(-c4ccc5cn[nH]c5c4)n3n2)cc1 [Example 485, 5-(1H-indazol-6-yl)-N-phenyl-[1,2,4]triazolo[1,5-a]pyridin-2-amine]
250 to 500 nM	CN(C)c1cc(-c2cccc3nc(Nc4ccccc4)nn23)ccn1 [Example 446, 5-(2-(dimethylamino)pyridin-4-yl)-N-phenyl-[1,2,4]triazolo[1,5-a]pyridin-2-amine]

same assay, conditions: activity levels A-D, read-out: Activity Level (IC50 in the Syk HTRF assay)

SMILES	IC50
CNC(=O)c1ccc(Nc2nc3cccc(N4CC[C@H](O)C4)n3n2)cc1 [Example 249, (S)-4-(5-(3-hydroxypyrrolidin-1-yl)-[1,2,4]triazolo[1,5-a]pyridin-2-ylamino)-N-methylbenzamide]	500 to 1000 nM
NCCOc1cccc2nc(Nc3ccc(C(F)(F)F)cc3)nn12 [Example 296, 5-(2-aminoethoxy)-N-(4-(trifluoromethyl)phenyl)-[1,2,4]triazolo[1,5-a]pyridin-2-amine]	500 to 1000 nM
O[C@H]1CCCN(c2cccc3nc(Nc4ccc(C(F)(F)F)cc4)nn23)C1 [Example 310, (S)-1-(2-(4-(trifluoromethyl)phenylamino)-[1,2,4]triazolo[1,5-a]pyridin-5-yl)piperidin-3-ol]	250 to 500 nM
Cc1cc(Nc2nc3cccc(N[C@H]4CC[C@@H](O)CC4)n3n2)cc(C)n1 [Example 261, cis-4-(2-(2,6-dimethylpyridin-4-ylamino)-[1,2,4]triazolo[1,5-a]pyridin-5-ylamino)cyclohexanol]	500 to 1000 nM
CC(c1cccc2nc(Nc3ccc(C(F)(F)F)cc3)nn12)N1CCNC(=O)C1 (centres unmarked) [Example 263, 4-(1-(2-(4-(trifluoromethyl)phenylamino)-[1,2,4]triazolo[1,5-a]pyridin-5-yl)ethyl)piperazin-2-one]	0.005 to 250 nM
CNC(=O)c1ccc(Nc2nc3cccc(CC(O)C4CCNCC4)n3n2)cc1 (centres unmarked) [Example 306, 4-(5-(2-hydroxy-2-(piperidin-4-yl)ethyl)-[1,2,4]triazolo[1,5-a]pyridin-2-ylamino)-N-methylbenzamide]	1000 to 10000 nM
CNC(=O)c1ccc(Nc2nc3cccc(C[C@H]4CC[C@@H](O)C4)n3n2)cc1 (single isomer, unassigned; diastereomer 2) [Example 214, 4-(5-((3-hydroxycyclopentyl)methyl)-[1,2,4]triazolo[1,5-a]pyrridin-2-ylamino)-N-methylbenzamide (diastereomer 2)]	1000 to 10000 nM

Further lines, results first:

IC50	SMILES
500 to 1000 nM	OC1CCN(c2cccc3nc(Nc4ccc(C(F)(F)F)cc4)nn23)CC1 [Example 345, 1-(2-(4-(trifluoromethyl)phenylamino)-[1,2,4]triazolo[1,5-a]pyridin-5-yl)piperidin-4-ol]
0.005 to 250 nM	CNC(=O)c1ccc(Nc2nc3cccc(CC4CCNCC4)n3n2)cc1 [Example 276]
500 to 1000 nM	O[C@@H]1CCCN(c2cccc3nc(Nc4ccc(C(F)(F)F)cc4)nn23)C1 [Example 309, (R)-1-(2-(4-(trifluoromethyl)phenylamino)-[1,2,4]triazolo[1.5-a]pyridin-5-yl)piperidin-3-ol]
0.005 to 250 nM	FC(F)(F)c1ccc(Nc2nc3cccc(CC4CCNCC4)n3n2)cc1 [Example 395, 5-(piperidin-4-ylmethyl)-N-(4-(trifluoromethyl)phenyl)-[1,2,4]triazolo[1,5-a]pyridin-2-amine]
0.005 to 250 nM	O=C1NCCc2cc(Nc3nc4cccc(N[C@H]5CC[C@@H](O)CC5)n4n3)ccc21 [Example 203, cis-6-(5-(4-hydroxycyclohexylamino)-[1,2,4]triazolo[1,5-a]pyridin-2-ylamino)-3,4-dihydroisoquinolin-1(2H)-one]
1000 to 10000 nM	NC(=O)c1cncc(Nc2nc3cccc(N[C@H]4CC[C@@H](O)CC4)n3n2)c1 [Example 369, cis-5-(5-(4-hydroxycyclohexylamino)-[1,2,4]triazolo[1,5-a]pyridin-2-ylamino)nicotinamide]
500 to 1000 nM	CC(NCc1cccc2nc(Nc3ccc(C(F)(F)F)cc3)nn12)C(N)=O (racemic) [Example 233, (±)-2-((2-(4-(trifluoromethyl)phenylamino)-[1,2,4]triazolo[1,5-a]pyridin-5-yl)methylamino)propanamide]

same assay, conditions: read-out: Activity Level (Syk HTRF assay IC50)

SMILES	IC50
OCc1nc2ccc(Nc3nc4cccc(-c5cccc(F)c5)n4n3)cc2[nH]1 [compound 3, (6-(5-(3-fluorophenyl)-[1,2,4]triazolo[1,5-a]pyridin-2-ylamino)-1H-benzo[d]imidazol-2-yl)methanol]	0.005 to 250 nM
COCc1nc2ccc(Nc3nc4cccc(N[C@H]5CC[C@@H](O)CC5)n4n3)cc2[nH]1 [Example 196, cis-4-(2-(2-(methoxymethyl)-1H-benzo[d]imidazol-6-ylamino)-[1,2,4]triazolo[1,5-a]pyridin-5-ylamino)cyclohexyl]	0.005 to 250 nM
NCCN1Cc2cc(Nc3nc4cccc(-c5ccccc5)n4n3)ccc2C1=O [compound 45, 2-(2-aminoethyl)-5-(5-phenyl-[1,2,4]triazolo[1,5-a]pyridin-2-ylamino)isoindolin-1-one]	250 to 500 nM

More lines, now with the values ahead:

IC50	SMILES
0.005 to 250 nM	c1ccc(-c2cccc3nc(Nc4ccc5c(NC6CCNCC6)n[nH]c5c4)nn23)cc1 [compound 23]
0.005 to 250 nM	CC1(C)C(=O)Nc2cc(Nc3nc4cccc(NC5CCOCC5)n4n3)ccc21 [Example 177, 3,3-dimethyl-6-(5-(tetrahydro-2H-pyran-4-ylamino)-[1,2,4]triazolo[1,5-a]pyridin-2-ylamino)indolin-2-one]
0.005 to 250 nM	Cc1n[nH]c2cc(Nc3nc4cccc(N(C)CCO)n4n3)ccc12 [Example 190, 2-(methyl(2-(3-methyl-1H-indazol-6-ylamino)-[1,2,4]triazolo[1,5-a]pyridin-5-yl)amino)ethanol]
0.005 to 250 nM	CN(C)Cc1nc2ccc(Nc3nc4cccc(-c5ccccc5)n4n3)cc2[nH]1 [compound 31, N-(2-((dimethylamino)methyl)-1H-benzo[d]imidazol-6-yl)-5-phenyl-[1,2,4]triazolo[1,5-a]pyridin-2-amine]
250 to 500 nM	CNC(=O)c1ccc(Nc2nc3cccc(-c4cccc(OC)c4)n3n2)cc1 [compound 20, 4-(5-(3-methoxyphenyl)-[1,2,4]triazolo[1,5-a]pyridin-2-ylamino)-N-methylbenzamide]

Source: patent US8299056B2 (Signal Pharmaceuticals, LLC, priority 2008, dated 2012)
